Values after ≈ are worked out from the molar mass of the structure shown.

For one data set, the system named is M bovis ATCC 25025. Kind of data set: in vitro anti-mycoplasmal MIC, Friis' agar (Table 3). The format is cell-based. How it is done:
(§1) The minimum inhibitory concentrations (MIC) of the examples were determined by either:
(§2) or (ii) by serial dilution in Friis' agar medium.

The next data set has as its system M bovis NCTC 10131. The description is as above. The format is cell-based. How it is done: as §1, §2
Data set [1] can be described thus: Mean serum concentrations in neonatal piglets after intramuscular or oral administration. The format is in vivo. Particulars: pig, 50 mg/kg. As for the experimental part: (f) Mean serum concentrations in neonatal piglets after intramuscular or oral administration at 50 mg/kg of 6-sulphamoylhexyl monate A
Blood levels were assessed in neonatal piglets (2 to 4 animals per group and mean bodyweights about 2 kg). The dose was 50 mg/kg (dose solution=25 mg/ml in 25% ethanol). Doses were given by intramuscular injection and orally by stomach tube. Piglets were bled at intervals up to 6 and at 24 hours, and serum assayed microbiologically (B. subtilis ATCC 6633).

The test system of a further data set is Past haemolytica PA5. Briefly: MIC veterinary bacteria (Table 2), serial dilution in agar. Format: cell-based. The settings on record: diagnostic sensitivity test agar.
The next data set deals with M. dispar NCTC 10125. Briefly: anti-mycoplasmal MIC, Friis broth solidified with agarose (Table 4). The format is cell-based. The settings on record: 144 h, 6 days at 37° C. As for the experimental part: The values were determined in Friis broth solidifed with 0.9% agarose. The inoculum was 10^3 to 10^5 CFV and the MIC's were recorded after 6 days incubation at 37° C.

With `C/C(=C\C(=O)OCCCCCCS(N)(=O)=O)CC1OCC(CC2OC2C(C)C(C)O)C(O)C1O` (centres unmarked) [Example 2, 6-Sulphamoylhexyl monate A], the MIC against M bovis ATCC 25025 is less than 0.02 µg/mL. In addition, the MIC against M bovis NCTC 10131 is less than 0.02 µg/mL. Moreover, in data set [1] (im), the concentration at 10 min was determined as 31400 ng/mL, the concentration at 20 min came to 31200 ng/mL, the concentration at 40 min was found to be 23700 ng/mL and the concentration at 1 h was 17300 ng/mL. In data set [1] (im), the concentration at 2 h came to 9200 ng/mL, the concentration at 3 h was 3200 ng/mL, the concentration at 4 h turned out to be 1020 ng/mL and the concentration at 5 h was less than 600 ng/mL. In addition, in data set [1] (po), the concentration at 10 min is 5900 ng/mL, the concentration at 20 min turned out to be 8300 ng/mL, the concentration at 40 min worked out at 8600 ng/mL and the concentration at 1 h stood at 5900 ng/mL. Also, in data set [1] (po), the concentration at 2 h was determined as 1800 ng/mL, the concentration at 3 h came to 1500 ng/mL, the concentration at 4 h turned out to be 740 ng/mL and the concentration at 5 h is less than 510 ng/mL.
In the data set with Past haemolytica PA5, `C/C(=C\C(=O)OCCCS(=O)(=O)N(C)C)CC1OCC(CC2OC2C(C)C(C)O)C(O)C1O` (centres unmarked) [Example 4, 3-N,N-Dimethylsulphamoylpropyl monate A] yielded an MIC of 10 µg/mL (≈ 20.3 µM).
`C/C(=C\C(=O)OC(C)CCCCCS(N)(=O)=O)CC1OCC(CC2OC2C(C)C(C)O)C(O)C1O` (centres unmarked) [Example 5, 7-Sulphamoylhept-2-yl monate A] displayed an MIC in the data set on M. dispar NCTC 10125 of 100 µg/mL (≈ 192 µM).

As a reminder, the MIC is the lowest concentration that inhibits growth of the organism.

Values taken from patent publication US4312867A, “Antibacterial compounds, processes for their preparation and compositions containing them” (Beecham Group Limited, priority 1979, dated 1982).
